Test results as given in patent US20250084084A1, “Crystalline form of (2R)-2-(5-fluoro-2-methoxypyridin-4-yl)-1-[(2S)-7-methyl-6-(pyrimidin-2-yl)-3,4-dihydro-1H-spiro[1,8-naphthyridine-2,3-pyrrolidin]-1-yl]propan-1-one” (Pfizer Inc., priority 2020, published 2025).

Each molecule was assayed against α-melanocyte-stimulating hormone receptor (hMC4R) (Homo sapiens (Human), UniProt P32245) (assay: In vitro binding affinity assay using hMC4R (radioligand competition binding, [125I]-(Nle4, D-Phe7)-α-MSH)). Settings: geometric mean, read-out: Ki (nM) geometric.
Chain of α-melanocyte-stimulating hormone receptor (hMC4R) (P32245 whole entry): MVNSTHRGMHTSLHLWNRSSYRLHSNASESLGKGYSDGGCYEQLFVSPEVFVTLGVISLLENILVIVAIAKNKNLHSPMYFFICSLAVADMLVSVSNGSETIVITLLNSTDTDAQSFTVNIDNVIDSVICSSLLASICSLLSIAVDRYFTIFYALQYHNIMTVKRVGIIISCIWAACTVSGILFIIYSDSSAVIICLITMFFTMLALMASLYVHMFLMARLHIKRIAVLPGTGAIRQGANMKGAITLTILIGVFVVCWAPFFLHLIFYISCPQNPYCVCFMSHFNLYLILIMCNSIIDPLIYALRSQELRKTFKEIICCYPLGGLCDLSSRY
Experimental: The binding affinity of test compounds at the α-melanocyte-stimulating hormone receptor (hMC4R) was assessed using a radioligand competition binding assay. Recombinant Chinese hamster ovaries (CHO) cells stably expressing hMC4R (PerkinElmer #ES-191-C) were used for competitive binding. hMC4R membranes were grown in Dulbecco's Modified Essential Medium and Ham's F-12 Medium (DMEM/F12), 10% heat inactivated fetal bovine serum (FBS), 0.4 mg/mL Geneticin and 2 mM L-glutamine. Cell membranes were bulked and frozen until the assay was performed.
Compounds were solubilized in 100% dimethyl sulfoxide (DMSO) to a concentration of 30 mM. A 10-point intermediate dilution series using half log dilutions was created in 100% DMSO with a top concentration of 0.03 mM. The serially diluted compounds were spotted as 1 μL/well, in 96-well Costar 3363 plates. The final compound range in the assay was 300 nM to 0.01 nM with a final DMSO concentration of 1%. Control wells, containing 1 μL of 2 mM ([…]) alpha-melanocyte stimulating hormone (α-MSH-Tocris #2584) was added to the non-specific binding wells and 1 μL 100% DMSO for the total binding control wells. […] The exact concentration of radioligand used for each experiment was determined by liquid scintillation counting and adjusted if necessary.
Frozen hMC4R cell membranes were thawed and Dounce homogenized. Homogenates were resuspended in assay buffer to a concentration of 2 μg per well. […] The plates were incubated for 2 hours at room temperature. Assay samples were then rapidly filtered through Unifilter-96 GF/B PEI coated filter plates using a filter plate harvester (PerkinElmer) and rinsed with ice-cold wash buffer [25 mM (4-(2-hydroxyethyl)-1-piperazineethanesulfonic acid (HEPES), 1 mM MgCl2, 2.5 mM CaCl2, and 500 mM NaCl]. Filter plates were dried overnight at room temperature. Plates were then bottom-sealed prior to the addition of 50 μL/well Ultima Gold XR scintillation fluid (PerkinElmer 6013111). Plates were then top-sealed, incubated for 60 minutes at room temperature and then the amount of radioactivity present was determined by liquid scintillation counting on a Microbeta Trilux (PerkinElmer #2450-0060).
The raw data (expressed as counts per minute) were analyzed using ActivityBase (IDBS Data Management Software). […] Equilibrium dissociation constant for inhibitor of ligand and receptor interaction (Ki) values were then calculated from the IC50 values using the Cheng-Prusoff equation: Ki=IC50/(1+([L]/Kd)), where [L] is the concentration of the radioligand used in the experiment and Kd is the affinity of the radioligand (determined in separate saturation experiments).

Ki [nM]	SMILES
1.3	COc1cc([C@@H](C)C(=O)N2CC[C@@]3(CCc4cc(-c5nccc(C(F)(F)F)n5)c(C)nc4N3)C2)c(F)cn1 [Example 143, (2R)-2-(5-fluoro-2-methoxypyridin-4-yl)-1-{(2S)-7-methyl-6-[4-(trifluoromethyl)pyrimidin-2-yl]-3,4-dihydro-1H-spiro[1,8-naphthyridine-2,3′-pyrrolidin]-1′-yl}propan-1-one]
45	COc1cc([C@@H](C)C(=O)N2CC[C@@]3(CCc4cc(-c5ccc(-c6noc(C)n6)cc5)c(C)nc4N3)C2)c(F)cn1 [Example 175, (2R)-2-(5-fluoro-2-methoxypyridin-4-yl)-1-{(2S)-7-methyl-6-[4-(5-methyl-1,2,4-oxadiazol-3-yl)phenyl]-3,4-dihydro-1H-spiro[1,8-naphthyridine-2,3′-pyrrolidin]-1′-yl}propan-1-one]
26	COc1cc([C@@H](C)C(=O)N2CC[C@@]3(CCc4cc(-c5cc(C)ns5)c(C)nc4N3)C2)c(F)cn1 [Example 176, (2R)-2-(5-fluoro-2-methoxypyridin-4-yl)-1-[(2S)-7-methyl-6-(3-methyl-1,2-thiazol-5-yl)-3,4-dihydro-1H-spiro[1,8-naphthyridine-2,3′-pyrrolidin]-1′-yl]propan-1-one]
47	COc1cc([C@@H](C)C(=O)N2CC[C@@]3(CCc4cc(-c5cccc(-c6nnc(C)o6)c5)c(C)nc4N3)C2)c(F)cn1 [Example 161, (2R)-2-(5-fluoro-2-methoxypyridin-4-yl)-1-{(2S)-7-methyl-6-[3-(5-methyl-1,3,4-oxadiazol-2-yl)phenyl]-3,4-dihydro-1H-spiro[1,8-naphthyridine-2,3′-pyrrolidin]-1′-yl}propan-1-one]
0.72	COc1cc([C@@H](C)C(=O)N2CC[C@@]3(CCc4cc(-c5cnn6cccnc56)c(C)nc4N3)C2)c(F)cn1 [Example 154, (2R)-2-(5-fluoro-2-methoxypyridin-4-yl)-1-[(2S)-7-methyl-6-(pyrazolo[1,5-a]pyrimidin-3-yl)-3,4-dihydro-1H-spiro[1,8-naphthyridine-2,3′-pyrrolidin]-1′-yl]propan-1-one]
3.9	COc1cc([C@@H](C)C(=O)N2CC[C@@]3(CCc4cc(-c5cnsc5)c(C)nc4N3)C2)c(F)cn1 [Example 150, (2R)-2-(5-fluoro-2-methoxypyridin-4-yl)-1-[(2S)-7-methyl-6-(1,2-thiazol-4-yl)-3,4-dihydro-1H-spiro[1,8-naphthyridine-2,3′-pyrrolidin]-1′-yl]propan-1-one]
8.2	COc1cc([C@@H](C)C(=O)N2CC[C@@]3(CCc4cc(-c5cc(C)ccn5)c(C)nc4N3)C2)c(F)cn1 [Example 166, (2R)-2-(5-fluoro-2-methoxypyridin-4-yl)-1-[(2S)-7-methyl-6-(4-methylpyridin-2-yl)-3,4-dihydro-1H-spiro[1,8-naphthyridine-2,3′-pyrrolidin]-1′-yl]propan-1-one]
15	COc1cc([C@@H](C)C(=O)N2CC[C@@]3(CCc4cc(-c5ccc(C6CC6)nn5)c(C)nc4N3)C2)c(F)cn1 [Example 199, (2R)-1-[(2S)-6-(6-cyclopropylpyridazin-3-yl)-7-methyl-3,4-dihydro-1H-spiro[1,8-naphthyridine-2,3′-pyrrolidin]-1′-yl]-2-(5-fluoro-2-methoxypyridin-4-yl)propan-1-one]
13	COc1cc([C@@H](C)C(=O)N2CC[C@@]3(CCc4cc(-c5ccc(F)cn5)c(C)nc4N3)C2)c(F)cn1 [Example 139, (2R)-2-(5-fluoro-2-methoxypyridin-4-yl)-1-[(2S)-6-(5-fluoropyridin-2-yl)-7-methyl-3,4-dihydro-1H-spiro[1,8-naphthyridine-2,3′-pyrrolidin]-1′-yl]propan-1-one]
6.3	COc1cc([C@@H](C)C(=O)N2CC[C@@]3(CCc4cc(-c5ccccn5)c(C)nc4N3)C2)c(F)cn1 [Example 140, (2R)-2-(5-fluoro-2-methoxypyridin-4-yl)-1-[(2S)-7-methyl-6-(pyridin-2-yl)-3,4-dihydro-1H-spiro[1,8-naphthyridine-2,3′-pyrrolidin]-1′-yl]propan-1-one]
86	COc1cc([C@@H](C)C(=O)N2CC[C@@]3(CCc4cc(-c5nnc(N6CCCCC6)s5)c(C)nc4N3)C2)c(F)cn1 [Example 168, (2R)-2-(5-fluoro-2-methoxypyridin-4-yl)-1-{(2S)-7-methyl-6-[5-(piperidin-1-yl)-1,3,4-thiadiazol-2-yl]-3,4-dihydro-1H-spiro[1,8-naphthyridine-2,3′-pyrrolidin]-1′-yl}propan-1-one]
0.9	COc1cc([C@@H](C)C(=O)N2CC[C@@]3(CCc4cc(-c5cn(C(F)F)c(C)n5)c(C)nc4N3)C2)c(F)cn1 [Example 138, (2R)-1-{(2S)-6-[1-(difluoromethyl)-2-methyl-1H-imidazol-4-yl]-7-methyl-3,4-dihydro-1H-spiro[1,8-naphthyridine-2,3′-pyrrolidin]-1′-yl}-2-(5-fluoro-2-methoxypyridin-4-yl)propan-1-one]
2.4	COc1cc([C@@H](C)C(=O)N2CC[C@@]3(CCc4cc(-c5cccc(C(F)F)n5)c(C)nc4N3)C2)c(F)cn1 [Example 181, (2R)-1-{(2S)-6-[6-(difluoromethyl)pyridin-2-yl)-7-methyl-3,4-dihydro-1H-spiro[1,8-naphthyridine-2,3′-pyrrolidin]-1′-yl}-2-(5-fluoro-2-methoxypyridin-4-yl)propan-1-one]
57	Cc1nc2c(cc1-c1nnn(C)n1)CC[C@@]1(CCN(C(=O)[C@H](C)c3ccc(OC(F)F)nc3)C1)N2 (single isomer, unassigned) [Example 107]

SMILES	Ki [nM]
COc1cc([C@@H](C)C(=O)N2CC[C@]3(CCc4cc(-c5nnn(C)n5)c(C)nc4N3)C2)c(F)cn1 [Example 116, (2R)-2-(5-fluoro-2-methoxypyridin-4-yl)-1-[(2R)-7-methyl-6-(2-methyl-2H-tetrazol-5-yl)-3,4-dihydro-1H-spiro[1,8-naphthyridine-2,3′-pyrrolidin]-1′-yl]propan-1-one]	7.1

Same assay, conditions: geometric mean, read-out: Ki (nM) geometric mean

Ki [nM]	SMILES
0.044	COc1cc(OC)cc([C@@H](C)C(=O)N2CCC3(CCc4cc(-c5cnn(C)c5)c(C)nc4N3)C2)c1 (single isomer, unassigned) [Example 90]
0.81	Cc1nc2c(cc1-c1ncccn1)CC[C@@]1(CCN(C(=O)[C@H](C)c3ccc(F)c(F)c3)C1)N2 (single isomer, unassigned) [Example 50]
54	Cc1nc(OC(F)F)cc([C@@H](C)C(=O)N2CC[C@@]3(CCc4cc(-c5ncccn5)c(C)nc4N3)C2)n1 (single isomer, unassigned) [Example 44]
3.3	COc1cc([C@@H](C)C(=O)N2CC[C@@]3(CCc4cc(-c5cc(C(F)(F)F)ncn5)c(C)nc4N3)C2)c(F)cn1 [Example 72, (2R)-2-(5-fluoro-2-methoxypyridin-4-yl)-1-{(2S)-7-methyl-6-[6-(trifluoromethyl)pyrimidin-4-yl]-3,4-dihydro-1H-spiro[1,8-naphthyridine-2,3′-pyrrolidin]-1′-yl}propan-1-one]
2.6	COc1cc([C@@H](C)C(=O)N2CCC3(CCc4cc(-c5coc(C)n5)c(C)nc4N3)C2)c(F)cn1 (mixture of isomers) [Example 33, (2R)-2-(5-fluoro-2-methoxypyridin-4-yl)-1-[7-methyl-6-(2-methyl-1,3-oxazol-4-yl)-3,4-dihydro-1H-spiro[1,8-naphthyridine-2,3′-pyrrolidin]-1′-yl]propan-1-one]
0.93	Cc1nc2c(cc1-c1ncccn1)CC[C@@]1(CCN(C(=O)Cc3cc(F)c(F)c(F)c3)C1)N2 [Example 54, 1-[(2S)-7-methyl-6-(pyrimidin-2-yl)-3,4-dihydro-1H-spiro[1,8-naphthyridine-2,3′-pyrrolidin]-1′-yl]-2-(3,4,5-trifluorophenyl)ethan-1-one]
250	Cc1nc2c(cc1-c1nnn(C)n1)CC[C@@]1(CCN(C(=O)Cc3ccc(C(F)(F)F)cc3)C1)N2 (single isomer, unassigned) [Example 66, 1-[7-methyl-6-(2-methyl-2H-tetrazol-5-yl)-3,4-dihydro-1H-spiro[1,8-naphthyridine-2,3′-pyrrolidin]-1′-yl]-2-[4-(trifluoromethyl)phenyl]ethan-1-one]
3.5	COc1cc([C@](C)(F)C(=O)N2CC[C@@]3(CCc4cc(-c5ncccn5)c(C)nc4N3)C2)ccn1 (single isomer, unassigned) [Example 46]
